As usually defined, the IC50 is the concentration needed to halve the response being measured. A higher IC50 goes with a need for much substance.

Data on 21 compounds can be found in US20240217978A1 (CHONG KUN DANG PHARMACEUTICAL CORP., priority 2021, published 2024).

Sequence of human adenosine A2a receptor (P29274 whole entry): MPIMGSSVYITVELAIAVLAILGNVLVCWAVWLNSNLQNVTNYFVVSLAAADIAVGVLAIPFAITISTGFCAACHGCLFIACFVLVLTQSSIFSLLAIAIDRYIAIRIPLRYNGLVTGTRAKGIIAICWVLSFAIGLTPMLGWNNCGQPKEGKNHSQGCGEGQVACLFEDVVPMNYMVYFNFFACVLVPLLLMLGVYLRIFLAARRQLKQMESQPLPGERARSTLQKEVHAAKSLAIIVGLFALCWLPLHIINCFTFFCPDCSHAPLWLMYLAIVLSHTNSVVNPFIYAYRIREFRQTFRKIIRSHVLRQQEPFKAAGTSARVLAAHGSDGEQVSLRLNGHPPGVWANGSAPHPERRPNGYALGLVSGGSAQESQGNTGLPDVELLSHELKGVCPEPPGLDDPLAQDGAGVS

This test concerns the target human adenosine A2a receptor (Homo sapiens (Human), UniProt P29274). In words: A2a receptor binding affinity, [3H]-NECA radioligand binding test. The note with it: [3H]-NECA 37 nM; membrane from HEK-293 cells transfected with human adenosine A2a receptor. In short, it runs like this: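 Membranes from HEK-293 cells expressing human A2a receptor were incubated with [3H]-NECA (final 37 nM) and compound for 1 h at room temperature in 50 mM Tris, 10 mM MgCl2, 1 mM EDTA, pH 7.4. Bound ligand was filtered on PEI-coated plates and counted by scintillation to derive IC50 (μM).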
The compound `Nc1nc(N[C@@H](Cc2ccccc2)C(=O)N2CCC(COc3ccccc3)CC2)nc2nc(-c3ccco3)nn12` [Example 3, (S)-2-((7-amino-2-(furan-2-yl)-[1,2,4]triazolo[1,5-a][1,3,5]triazin-5-yl)amino)-1-(4-(phenoxymethyl)piperidin-1-yl)-3-phenylpropan-1-one] showed an IC50 of 1 nM.
`Cc1ccc(-c2nc3nc(N4CCC[C@H]4C(=O)N4CCN(c5ncccn5)CC4)nc(N)n3n2)o1` [Example 203, (S)-(1-(7-amino-2-(5-methylfuran-2-yl)-[1,2,4]triazolo[1,5-a][1,3,5]triazin-5-yl)pyrrolidin-2-yl)(4-(pyrimidin-2-yl)piperazin-1-yl)methanone] showed an IC50 of 6 nM.
Then `CC(C)[C@H](Nc1nc(N)n2nc(-c3ccco3)nc2n1)C(=O)N1CCN(CC(F)(F)F)CC1` [Example 144, (S)-2-((7-amino-2-(furan-2-yl)-[1,2,4]triazolo[1,5-a][1,3,5]triazin-5-yl)amino)-3-methyl-1-(4-(2,2,2-trifluoroethyl)piperazin-1-yl)butan-1-one], with 14 nM; and `Nc1nc(N2CCC[C@H]2C(=O)N2CCN(C3CCC(C(F)(F)F)CC3)CC2)nc2nc(-c3ccco3)nn12` (stereo partly drawn) [Example 155, (S)-(1-(7-amino-2-(furan-2-yl)-[1,2,4]triazolo[1,5-a][1,3,5]triazin-5-yl)pyrrolidin-2-yl)(4-(4-(trifluoromethyl)cyclohexyl)piperazin-1-yl)methanone], with 11 nM; and `Nc1nc(N[C@H](C(=O)N2CCC(N3CC(F)(F)C3)CC2)C2CCCCC2)nc2nc(-c3ccco3)nn12` [Example 186, (S)-2-((7-amino-2-(furan-2-yl)-[1,2,4]triazolo[1,5-a][1,3,5]triazin-5-yl)amino)-2-cyclohexyl-1-(4-(3,3-difluoroazetidin-1-yl)piperidin-1-yl)ethan-1-one], with 9 nM.
The compound `Cn1cnc(C(=O)N2CCN(C(=O)[C@@H]3CCCN3c3nc(N)n4nc(-c5ccco5)nc4n3)CC2)c1` [Example 102] registered an IC50 of 10 nM.
`CCCCN1CCN(C(=O)[C@@H](Nc2nc(N)n3nc(-c4ccco4)nc3n2)c2ccccc2)CC1` [Example 190, (S)-2-((7-amino-2-(furan-2-yl)-[1,2,4]triazolo[1,5-a][1,3,5]triazin-5-yl)amino)-1-(4-butylpiperazin-1-yl)-2-phenylethan-1-one] gave an IC50 of 8 nM.
With `CC(C)[C@H](Nc1nc(N)n2nc(-c3ccco3)nc2n1)C(=O)N1CCN(CC(C)(F)F)CC1` [Example 360, (S)-2-((7-amino-2-(furan-2-yl)-[1,2,4]triazolo[1,5-a][1,3,5]triazin-5-yl)amino)-1-(4-(2,2-difluoropropyl)piperazin-1-yl)-3-methylbutan-1-one], the IC50 amounted to 10 nM.
The compound `CCCCN1CCN(C(=O)[C@@H](Nc2nc(N)n3nc(-c4ccco4)nc3n2)C2CCC2)CC1` [Example 177, (S)-2-((7-amino-2-(furan-2-yl)-[1,2,4]triazolo[1,5-a][1,3,5]triazin-5-yl)amino)-1-(4-butylpiperazin-1-yl)-2-cyclobutylethan-1-one] displayed an IC50 of 20 nM.
Regarding `COC[C@H](Nc1nc(N)n2nc(-c3ccco3)nc2n1)C(=O)N1CCN(CC(C)(C)O)CC1` [Example 399, (S)-2-((7-amino-2-(furan-2-yl)-[1,2,4]triazolo[1,5-a][1,3,5]triazin-5-yl)amino)-1-(4-(2-hydroxy-2-methylpropyl)piperazin-1-yl)-3-methoxypropan-1-one], the IC50 turned out to be 5 nM.
For `Nc1nc(N2CCC[C@H]2C(=O)N2CCN(c3ccc(F)cc3)CC2)nc2nc(-c3ccco3)nn12` [Example 121, (S)-(1-(7-amino-2-(furan-2-yl)-[1,2,4]triazolo[1,5-a][1,3,5]triazin-5-yl)pyrrolidin-2-yl)(4-(4-fluorophenyl)piperazin-1-yl)methanone], the IC50 was determined as 6 nM.
Then `CC(F)(F)CN1CC2(CCN(C(=O)[C@@H]3CCCN3c3nc(N)n4nc(-c5ccco5)nc4n3)CC2)C1` [Example 364, (S)-(1-(7-amino-2-(furan-2-yl)-[1,2,4]triazolo[1,5-a][1,3,5]triazin-5-yl)pyrrolidin-2-yl)(2-(2,2-difluoropropyl)-2,7-diazaspiro[3.5]nonan-7-yl)methanone], with 12 nM; and `C[C@@H]1CN(CC(F)(F)F)CCN1C(=O)[C@@H]1CCCN1c1nc(N)n2nc(-c3ccco3)nc2n1` [Example 205, ((S)-1-(7-amino-2-(furan-2-yl)-[1,2,4]triazolo[1,5-a][1,3,5]triazin-5-yl)pyrrolidin-2-yl)((R)-2-methyl-4-(2,2,2-trifluoroethyl)piperazin-1-yl)methanone], with 7 nM.
Then `Cc1ccc(-c2nc3nc(N4CC[C@H]4C(=O)N4CCN(CC(F)(F)C(F)(F)F)CC4)nc(N)n3n2)o1` [Example 313, (S)-(1-(7-amino-2-(5-methylfuran-2-yl)-[1,2,4]triazolo[1,5-a][1,3,5]triazin-5-yl)azetidin-2-yl)(4-(2,2,3,3,3-pentafluoropropyl)piperazin-1-yl)methanone], with 5 nM; and `CCC(F)(F)CN1CCN(C(=O)[C@@H]2CCCN2c2nc(N)n3nc(-c4ccco4)nc3n2)CC1` [Example 225, (S)-(1-(7-amino-2-(furan-2-yl)-[1,2,4]triazolo[1,5-a][1,3,5]triazin-5-yl)pyrrolidin-2-yl)(4-(2,2-difluorobutyl)piperazin-1-yl)methanone], with 2 nM; and `CC[C@H](Nc1nc(N)n2nc(-c3ccco3)nc2n1)C(=O)N1CCN(CC(C)(C)F)CC1` [Example 338, (S)-2-((7-amino-2-(furan-2-yl)-[1,2,4]triazolo[1,5-a][1,3,5]triazin-5-yl)amino)-1-(4-(2-fluoro-2-methylpropyl)piperazin-1-yl)butan-1-one], with 14 nM.
In the case of `Nc1nc(N2CCC[C@@H]2C(=O)N2CCN(C(=O)Nc3ccccc3)CC2)nc2nc(-c3ccco3)nn12` [Example 100], the IC50 came to 9460 nM.
For `COCCOCCN1CCN(C(=O)[C@@H]2CCCN2c2nc(N)n3nc(-c4ccco4)nc3n2)CC1` [Example 141, (S)-(1-(7-amino-2-(furan-2-yl)-[1,2,4]triazolo[1,5-a][1,3,5]triazin-5-yl)pyrrolidin-2-yl)(4-(2-(2-methoxyethoxy)ethyl)piperazin-1-yl)methanone] the value was 15 nM; for `CCC(C)S(=O)(=O)N1CCN(C(=O)[C@@H]2CCCN2c2nc(N)n3nc(-c4ccco4)nc3n2)CC1` (stereo partly drawn) [Example 72, ((S)-1-(7-amino-2-(furan-2-yl)-[1,2,4]triazolo[1,5-a][1,3,5]triazin-5-yl)pyrrolidin-2-yl)(4-(sec-butylsulfonyl)piperazin-1-yl)methanone], 1 nM.
Then `CC(F)(F)CN1CCC2(CC1)CN(C(=O)[C@@H]1CCCN1c1nc(N)n3nc(-c4ccco4)nc3n1)C2` [Example 365, (S)-(1-(7-amino-2-(furan-2-yl)-[1,2,4]triazolo[1,5-a][1,3,5]triazin-5-yl)pyrrolidin-2-yl)(7-(2,2-difluoropropyl)-2,7-diazaspiro[3-5]nonan-2-yl)methanone], with 13 nM; and `Cc1ccc(-c2nc3nc(N4CC[C@H]4C(=O)N4CCN(Cc5ccc(F)cc5F)CC4)nc(N)n3n2)o1` [Example 208, (S)-(1-(7-amino-2-(5-methylfuran-2-yl)-[1,2,4]triazolo[1,5-a][1,3,5]triazin-5-yl)azetidin-2-yl)(4-(2,4-difluorobenzyl)piperazin-1-yl)methanone], with 3 nM.
